Patent US6737383B1, “Herbicidal oxadiazolidines” (priority 1999, dated 2004)

Columns and labels:
[1] = system: rice; assay: Test B flood test rice; assay type: in vivo, Oryza sativa
Description: At the same time, these crop and weed species were also treated with postemergence applications of test chemicals formulated in the same manner. Plants ranged in height from 2 to 18 cm (1- to 4-leaf stage) for postemergence treatments. Plant species in the flood test consisted of rice (Oryza sativa), smallflower flatsedge (Cyperus difformis), duck salad (Heteranthera limosa) and bamyardgrass (Echinochloa crus-galli) grown to the 2-leaf stage for testing. Treated plants and controls were maintained in a greenhouse for twelve to sixteen days, after which all species were compared to controls and visually evaluated. Plant response ratings, summarized in Table B, are based on a scale of 0 to 10 where 0 is no effect and 10 is complete control. A dash (−) response means no test result.

[2] = system: smallflower flatsedge; assay: Test B flood test smallflower flatsedge; assay type: in vivo, Cyperus difformis
How it was run: (§1)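 Read-out is a visual response score from 0 (no effect) to 10 (complete control), assigned by comparison with untreated controls. Treatment was applied at the 2-leaf stage, and plants stayed in the greenhouse for twelve to sixteen days before scoring.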

[3] = system: duck salad; assay: Test B flood test duck salad; assay type: in vivo, Heteranthera limosa
How it was run: as §1

[4] = system: bamyardgrass; assay: Test B flood test barnyardgrass; assay type: in vivo, Echinochloa crus-galli
How it was run: as §1

[5] = Pre-emergence, Rate 62 g/ha, scale 0 to 10, 0 is no effect, 10 is complete control
[6] = Rate 125 g/ha, Pre-emergence section (flood test species), scale 0 to 10, 0 no effect, 10 complete control
[7] = Rate 500 g/ha, Pre-emergence section of Table B, 0 to 10 scale (0 no effect, 10 complete control)

SMILES: CC(C)N(C(=O)n1oc(=O)n(C2CC=CCC2)c1=O)c1ccc(F)cc1 (stereo not drawn) [Compound 793]
- Rice plant response rating [1, 5]: 0
- Rice plant response rating [1, 6]: 0
- Rice plant response rating [1, 7]: 0
- S. Flatsedge plant response rating [2, 5]: 6
- S. Flatsedge plant response rating [2, 6]: 7
- S. Flatsedge plant response rating [2, 7]: 8
- Ducksalad plant response rating [3, 5]: 6
- Ducksalad plant response rating [3, 6]: 7
- Ducksalad plant response rating [3, 7]: 8
- Barnyardgrass plant response rating [4, 5]: 0
- Barnyardgrass plant response rating [4, 6]: 0
- Barnyardgrass plant response rating [4, 7]: 0
